Data on 21 molecules can be found in patent publication US20260001914A1, “MACROCYCLIC PEPTIDES TARGETING KRAS” (Merck Sharp & Dohme LLC, priority 2022, published 2026).

pEC50: −log10 of the molar value. *1 amine or outer side, *2 acyl side, *3 side chain or, on linkers, in order; H or OH if unused. Where a SMILES comes first, the peptide text is derived from it. Bridges are numbered along the chain shown (N, C = ends). [ ]: non-standard residue; d: D form. cBu(1-CO,cis-3-CH2NH) = O=C([C@H]1C[C@@H](CN[*:1])C1)[*:2]; NMeNva(5-imidazol-1-yl) = CN[C@@H](CCCn1ccnc1)C(=O)O; Phe(4-guanidino) = N=C(N)Nc1ccc(C[C@H](N)C(=O)O)cc1; X59 = O=C([C@H](Cc1ccc(CN2CCCC2)cc1)N[*:1])[*:2]; X22 = CNC(=N)N(C)CCC[C@@H](C(=O)[*:2])N(C)[*:1]; X49 = O=C(O)Cc1cccc(C[C@H](N[*:1])C(=O)[*:2])c1; Ala(pyrimidin-5-yl) = N[C@@H](Cc1cncnc1)C(=O)O; X25 = O=C([C@H](Cc1ccc(F)nc1)N[*:1])[*:2]; 1Nal = N[C@@H](Cc1cccc2ccccc12)C(=O)O; NHCH2CH2SCH2CO = O=C(CSCCN[*:1])[*:2]; X35 = CN([C@@H](CCCF)C(=O)[*:2])[*:1]; Phe(2-F) = N[C@@H](Cc1ccccc1F)C(=O)O; NMe3Pal = CN[C@@H](Cc1cccnc1)C(=O)O; X1 = O=C(C12CC(CN[*:1])(C1)C2)[*:2]; NMeF = CN[C@@H](Cc1ccccc1)C(=O)O; PhLac = O=C(O)[C@@H](O)Cc1ccccc1; X4 = O=C([C@H](CCCF)N[*:1])[*:2]; 3Pal = N[C@@H](Cc1cccnc1)C(=O)O; d3Pal = N[C@H](Cc1cccnc1)C(=O)O; Ahp(2) = CCCCC[C@H](N)C(=O)O; Cba = N[C@@H](CC1CCC1)C(=O)O; hLeu = CC(C)CC[C@H](N)C(=O)O; X64 = O=C(C#CCN[*:1])[*:2]; NMeS = CN[C@@H](CO)C(=O)O; αMeC = C[C@](N)(CS)C(=O)O; NMeA = CN[C@@H](C)C(=O)O; Nle = CCCC[C@H](N)C(=O)O

The term pEC50 denotes the negative decadic logarithm of the EC50, by convention in mol/L. Low values mean a large EC50, high ones a small EC50.

KRAS-G12D protein, sequence (P01116 1-188 isoform P01116-2 G12D): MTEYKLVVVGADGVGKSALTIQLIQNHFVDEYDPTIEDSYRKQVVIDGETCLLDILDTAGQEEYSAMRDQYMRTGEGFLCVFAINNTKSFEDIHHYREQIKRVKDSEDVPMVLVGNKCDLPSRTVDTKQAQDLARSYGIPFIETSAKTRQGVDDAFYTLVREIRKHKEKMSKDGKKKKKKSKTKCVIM

One assay has as its target KRAS-G12D protein (Homo sapiens, UniProt P01116, G12D). The experiment in a line: SOS-mediated nucleotide exchange assay (BODIPY-GDP / Tb-streptavidin TR-FRET). The assay is classed as biochemical.
Details: not given
In the case of `CCCC[C@@H]1NC(=O)[C@H](Cc2ccccc2F)NC(=O)[C@H](CC2CCC2)NC(=O)[C@@H](Cc2cccnc2)NC(=O)[C@H](CCCNC(=N)N)NC(=O)[C@H](Cc2ccccc2)NC(=O)C#CCNC(=O)[C@H](Cc2cccnc2)N(C)C1=O` [compound 104, cyclo(F-R-d3Pal-cBuA-Phe2F-Nle-NMe3Pal-amBYA)] (cyclo(FR[d3Pal][Cba][Phe(2-F)][Nle][NMe3Pal][X64])), the pEC50 was 6.41.

Take `CC(C)CC[C@@H]1NC(=O)[C@H](Cc2ccccc2F)NC(=O)[C@H](CCCF)NC(=O)[C@H](Cc2cncnc2)NC(=O)[C@H](C)N(C)C(=O)[C@H](Cc2ccccc2)OC(=O)C23CC(CNC(=O)[C@H](Cc4ccccc4)N(C)C1=O)(C2)C3` [compound 133, cyclo(FLac-NMeA-PyrimAla-NvaF-Phe2F-hL-NMeF-amBCP)] (cyclo([NMeA][Ala(pyrimidin-5-yl)][X4][Phe(2-F)][hLeu][NMeF][X1][PhLac])): the pEC50 was 8.11.

For `CCCC[C@@H]1NC(=O)[C@H](Cc2cccnc2)NC(=O)[C@H](COC)N(C)C(=O)[C@H](Cc2ccccc2)OC(=O)C23CC(CNC(=O)[C@H](Cc4cccnc4)N(C)C(=O)[C@H](CCCC)NC(=O)[C@H](Cc4ccccc4F)NC1=O)(C2)C3` [compound 255, cyclo(FLac-nMeSMe-3Pal-Nle-Phe2F-Nle-NMe3Pal-amBCP)] (cyclo([3Pal][Nle][Phe(2-F)][Nle][NMe3Pal][X1][PhLac][NMeS](Me))), the pEC50 was 5.19.

`CON=C1C[C@@H](Cc2ccccc2)C(=O)N(C)[C@@H](C)C(=O)N[C@@H](Cc2cncnc2)C(=O)N[C@@H](CC2CC2)C(=O)N[C@@H](Cc2ccccc2F)C(=O)N[C@@H](CCC(C)(F)F)C(=O)N(C)[C@@H](Cc2ccccc2)C(=O)NCC23CC1(C2)C3` (single isomer, unassigned) [compound 178, cyclo(CPhe-NMeA-PyrimAla-cPrA-Phe2F-Nle3F2-NMeF-MeOximamBCP)] had a pEC50 of 8.77.

`CCCC[C@@H]1NC(=O)[C@H](Cc2cnc(C#N)nc2)NC(=O)[C@H](C)N(C)C(=O)[C@H](Cc2ccccc2)OC(=O)C23CC(CNC(=O)[C@H](Cc4ccccc4)N(C)C(=O)[C@H](CCCC)NC(=O)[C@H](Cc4ccccc4F)NC1=O)(C2)C3` (single isomer, unassigned) [compound 315, cyclo(FLac-NMeA-AlaPyrim4CN-Nle-Phe2F-Nle-NMeF-amBCP)] gave a pEC50 of 8.28.

`CCC[C@@H]1NC(=O)[C@H](Cc2ccc(O)cc2)NC(=O)[C@H](CC(C)C)NC(=O)[C@H](Cc2ccc(O)cc2)NC(=O)[C@H](CCCNC(=N)N)NC(=O)[C@H](Cc2ccccc2)NC(=O)CSC[C@@H](C(N)=O)NC(=O)[C@H](Cc2ccccc2)N(C)C1=O` [compound 16, cyclo(F-R-Y-L-Y-Nva-NMeF-Cl-ClAc)] had a pEC50 of 5.44.

Consider `CCCCC[C@@H]1NC(=O)[C@H](Cc2ccc(O)cc2)NC(=O)[C@H](CC(C)C)NC(=O)[C@H](Cc2ccc(O)cc2)NC(=O)[C@H](CCCNC(=N)N)NC(=O)[C@H](Cc2ccccc2)NC(=O)CSC[C@@H](C(=O)NCC(=O)N[C@@H](CCCCN)C(=O)N[C@@H](CCCCN)C(N)=O)NC(=O)[C@H](Cc2ccccc2)N(C)C1=O` [compound 56, cyclo(F-R-Y-L-Y-Ahp-NMeF-C2-ClAc)] ({CH2CO}-FRYLY[Ahp(2)][NMeF]CGKK-NH2; thioether N-8), for which the pEC50 was 6.27.

For `CCCC[C@@H]1NC(=O)[C@H](Cc2ccc(F)nc2)NC(=O)[C@H](C)N(C)C(=O)[C@H](Cc2ccccc2)OC(=O)C23CC(CNC(=O)[C@H](Cc4ccccc4)N(C)C(=O)[C@H](CCCC)NC(=O)[C@H](Cc4ccccc4F)NC1=O)(C2)C3` [compound 231, cyclo(FLac-NMeA-4F3Pal-Nle-Phe2F-Nle-NMeF-amBCP)] (cyclo([NMeA][X25][Nle][Phe(2-F)][Nle][NMeF][X1][PhLac])), the pEC50 was 7.14.

Take `CCCC[C@@H]1NC(=O)[C@H](Cc2cccnc2)NC(=O)[C@H](C)N(C)C(=O)[C@H](Cc2cccnc2)NC(=O)C23CC(CNC(=O)[C@H](Cc4cccnc4)N(C)C(=O)[C@H](CCCC)NC(=O)[C@H](Cc4ccccc4F)NC1=O)(C2)C3` [compound 163, cyclo(3Pal-NMeA-3Pal-Nle-Phe2F-Nle-NMe3Pal-amBCP)] (cyclo([3Pal][NMeA][3Pal][Nle][Phe(2-F)][Nle][NMe3Pal][X1])): the pEC50 was 5.51.

As to `CCCC[C@@H]1NC(=O)[C@H](Cc2ccc(CN3CCCC3)cc2)NC(=O)[C@H](CCCn2ccnc2)N(C)C(=O)[C@H](Cc2ccccc2)NC(=O)[C@H]2C[C@@H](CNC(=O)[C@H](Cc3cccnc3)N(C)C(=O)[C@H](CCCC)NC(=O)[C@H](Cc3ccccc3F)NC1=O)C2` [compound 266, cyclo(F-NMeNvalmid-Phe4cPyrr-Nle-Phe2F-Nle-NMe3Pal-c3amCb1c)] (cyclo(F[NMeNva(5-imidazol-1-yl)][X59][Nle][Phe(2-F)][Nle][NMe3Pal][cBu(1-CO,cis-3-CH2NH)])), the pEC50 was 6.67.

Consider `CCCC[C@@H]1NC(=O)[C@H](Cc2cccnc2)NC(=O)[C@H](C)N(C)C(=O)[C@H](Cc2ccc(O)cc2)NC(=O)C23CC(CNC(=O)[C@H](Cc4cccnc4)N(C)C(=O)[C@H](CCCC)NC(=O)[C@H](Cc4ccccc4F)NC1=O)(C2)C3` [compound 168, cyclo(Y-NMeA-3Pal-Nle-Phe2F-Nle-NMe3Pal-amBCP)] (cyclo(Y[NMeA][3Pal][Nle][Phe(2-F)][Nle][NMe3Pal][X1])), for which the pEC50 is 6.36.

In the case of `CCCC[C@@H]1NC(=O)[C@H](Cc2ccccc2F)NC(=O)C(CC2CC(F)(F)C2)NC(=O)[C@H](Cc2cncnc2)NC(=O)[C@H](C)N(C)C(=O)[C@H](Cc2ccccc2)OC(=O)C23CC(CNC(=O)[C@H](Cc4cccnc4)N(C)C1=O)(C2)C3` (single isomer, unassigned) [compound 123, cyclo(FLac-NMeA-PyrimAla-rF2Cba-Phe2F-Nle-NMe3Pal-amBCP)], the pEC50 is 5.09.

In the case of `CCCC[C@@H]1NC(=O)[C@H](Cc2cccnc2)NC(=O)[C@H](CCCF)N(C)C(=O)[C@H](Cc2ccccc2)OC(=O)C23CC(CNC(=O)[C@H](Cc4cccnc4)N(C)C(=O)[C@H](CCCC)NC(=O)[C@H](Cc4ccccc4F)NC1=O)(C2)C3` [compound 239, cyclo(FLac-NMeNvaF-3Pal-Nle-Phe2F-Nle-NMe3Pal-amBCP)] (cyclo([3Pal][Nle][Phe(2-F)][Nle][NMe3Pal][X1][PhLac][X35])), the pEC50 was 6.53.

`CCCC[C@@H]1NC(=O)[C@H](Cc2ccc(OC)cc2)NC(=O)[C@H](CC2CCC2)NC(=O)[C@H](Cc2cccnc2)NC(=O)[C@H](CCCNC(=N)N)NC(=O)[C@H](Cc2ccccc2)NC(=O)C2CCC3(CN(C3)C(=O)[C@H](Cc3ccccc3)N(C)C1=O)O2` (single isomer, unassigned) [compound 100, cyclo(F-R-3Pal-cBuA-TyrOMe-Nle-NMeF-spiro54)] gave a pEC50 of 6.18.

In turn, `CCCCC[C@@H]1NC(=O)[C@H](Cc2ccc(OC)cc2)NC(=O)[C@H](CC2CCC2)NC(=O)[C@H](Cc2ccc(NC(=N)N)cc2)NC(=O)[C@H](CCCN(C)C(=N)NC)N(C)C(=O)[C@H](Cc2ccccc2)NC(=O)CSC[C@@](C)(C(N)=O)NC(=O)[C@H](Cc2ccccc2)N(C)C1=O` [compound 381, cyclo(F-NMeArg1MeMe-Phe4Gn-cBuA-TyrOMe-Ahp-NMeF-aMeCl-ClAc)] ({CH2CO}-F[X22][Phe(4-guanidino)][Cba]Y(Me)[Ahp(2)][NMeF][αMeC]-NH2; thioether N-8) gave a pEC50 of 8.77.

In turn, `CCCC[C@@H]1NC(=O)[C@H](Cc2ccc(NC(=N)N)cc2)NC(=O)[C@H](CCCN(C)C(=N)NC)N(C)C(=O)[C@H](Cc2ccccc2)NC(=O)[C@H]2C[C@@H](CNC(=O)[C@H](Cc3ccccc3)N(C)C(=O)[C@H](CCCC)NC(=O)[C@H](Cc3ccc(OC)cc3)NC1=O)C2` [compound 384, cyclo(F-NMeArg1MeMe-Phe4Gn-Nle-TyrOMe-Nle-NMeF-c3amCblc)] (cyclo(F[X22][Phe(4-guanidino)][Nle]Y(Me)[Nle][NMeF][cBu(1-CO,cis-3-CH2NH)])) gave a pEC50 of 6.74.

`CC(C)CC[C@@H]1NC(=O)[C@H](Cc2ccccc2F)NC(=O)[C@H](CC2CCC2)NC(=O)[C@H](Cc2cncnc2)NC(=O)[C@H](C)N(C)C(=O)[C@H](Cc2ccccc2)OC(=O)C23CC(CNC(=O)[C@H](Cc4ccccc4)N(C)C1=O)(C2)C3` [compound 134, cyclo(FLac-NMeA-PyrimAla-cBuA-Phe2F-hL-NMeF-amBCP)] (cyclo([Cba][Phe(2-F)][hLeu][NMeF][X1][PhLac][NMeA][Ala(pyrimidin-5-yl)])) showed a pEC50 of 8.19.

As for `CCCCC[C@@H]1NC(=O)[C@H](Cc2ccc(OC)cc2)NC(=O)[C@H](CC2CCC2)NC(=O)[C@H](Cc2ccc(C)nc2)NC(=O)[C@H](CCCNC(=N)N)NC(=O)[C@H](Cc2ccccc2)NC(=O)CSC[C@@](C)(C(N)=O)NC(=O)[C@H](Cc2ccccc2)N(C)C1=O` [compound 364, cyclo(F-R-4Me3Pal-cBuA-TyrOMe-Ahp-NMeF-aMeCl-ClAc)], the pEC50 was 7.47.

The molecule `CCCC[C@@H]1NC(=O)[C@H](CCCCN)NC(=O)[C@H](CCCNC(=N)N)NC(=O)[C@H](Cc2cccc3ccccc23)NC(=O)CSCCNC(=O)[C@H](Cc2ccccc2)N(C)C(=O)[C@H](CCCC)NC(=O)[C@H](Cc2cccc(CC(=O)O)c2)NC1=O` [compound 196, cyclo(INal-R-K-Nle-Phe3AcOH-Nle-NMeF-Cysteamine-ClAc)] (cyclo([1Nal]RK[Nle][X49][Nle][NMeF][NHCH2CH2SCH2CO])) showed a pEC50 of 5.58.

As for `CCCC[C@@H]1NC(=O)[C@H](Cc2ccccc2F)NC(=O)[C@H](CCC(C)C)NC(=O)[C@H](Cc2cncnc2)NC(=O)[C@H](C)N(C)C(=O)[C@H](Cc2ccccc2)OC(=O)C23CC(CNC(=O)[C@H](Cc4cccnc4)N(C)C1=O)(C2)C3` [compound 127, cyclo(FLac-NMeA-PyrimAla-hL-Phe2F-Nle-NMe3Pal-amBCP)] (cyclo([NMe3Pal][X1][PhLac][NMeA][Ala(pyrimidin-5-yl)][hLeu][Phe(2-F)][Nle])), the pEC50 was 6.64.

The same assay, now with this note: listed as 190.
In turn, `COc1ccc(C[C@@H]2NC(=O)[C@H](CC3CCC3)NC(=O)[C@H](Cc3cccnc3)NC(=O)[C@H](CCCNC(=N)N)NC(=O)[C@H](Cc3ccccc3)NC(=O)CSC[C@](C)(C(N)=O)NC(=O)[C@@H]3CCCCCCC[C@H](NC2=O)C(=O)N3C)cc1` (single isomer, unassigned) [SEQ ID NO: 190] showed a pEC50 of 6.19.
